Results reported in ChEMBL document CHEMBL1133892 (Bioorg Med Chem Lett, 2001).

Assays:
[1] = target: T1, Prostaglandin E2 receptor EP2 subtype (Mus musculus, UniProt Q62053); experiment: Effective concentration which increases intracellular c-AMP production in mouse Prostanoid EP2 receptor; format: functional, cell-based
[2] = target: Prostaglandin E2 receptor EP4 subtype (Mus musculus, UniProt P32240); experiment: Binding affinity towards mouse Prostanoid EP4 receptor in CHO cells.; format: cell-based
Chain of Prostaglandin E2 receptor EP4 subtype (P32240 whole entry): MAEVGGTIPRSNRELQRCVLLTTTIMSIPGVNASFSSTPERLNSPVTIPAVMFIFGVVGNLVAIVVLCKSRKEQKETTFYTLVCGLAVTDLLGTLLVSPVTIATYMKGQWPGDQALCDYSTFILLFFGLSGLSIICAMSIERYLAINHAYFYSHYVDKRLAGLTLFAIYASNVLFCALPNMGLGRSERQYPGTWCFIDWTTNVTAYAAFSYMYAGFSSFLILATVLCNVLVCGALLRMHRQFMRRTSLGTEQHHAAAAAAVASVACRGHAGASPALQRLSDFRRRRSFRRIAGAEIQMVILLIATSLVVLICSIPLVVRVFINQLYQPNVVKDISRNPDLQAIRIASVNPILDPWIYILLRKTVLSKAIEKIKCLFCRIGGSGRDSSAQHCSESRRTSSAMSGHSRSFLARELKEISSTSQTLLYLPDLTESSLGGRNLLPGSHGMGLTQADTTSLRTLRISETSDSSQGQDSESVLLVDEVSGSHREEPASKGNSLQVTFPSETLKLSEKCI

[3] = target: T1, Prostaglandin E2 receptor EP2 subtype; experiment: Binding affinity towards mouse Prostanoid EP2 receptor expressed in CHO cells.; format: cell-based
Prostacyclin receptor [4] = target: T2, Prostacyclin receptor (Homo sapiens, UniProt P43119); experiment: Binding affinity towards human Prostanoid IP receptor in CHO cells.; format: cell-based
T2 sequence (P43119 whole entry): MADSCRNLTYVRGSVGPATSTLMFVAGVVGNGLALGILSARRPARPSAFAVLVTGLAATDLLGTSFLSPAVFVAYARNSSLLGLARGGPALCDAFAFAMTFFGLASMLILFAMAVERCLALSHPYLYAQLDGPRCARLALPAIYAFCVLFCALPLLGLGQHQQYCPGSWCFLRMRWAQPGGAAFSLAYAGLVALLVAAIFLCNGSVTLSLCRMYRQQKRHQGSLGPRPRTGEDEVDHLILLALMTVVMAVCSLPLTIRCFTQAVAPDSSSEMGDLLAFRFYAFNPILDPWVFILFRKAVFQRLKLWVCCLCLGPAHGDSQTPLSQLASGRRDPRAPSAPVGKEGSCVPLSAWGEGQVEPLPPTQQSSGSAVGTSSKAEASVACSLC

[5] = target: T3, Prostaglandin E2 receptor EP3 subtype (Mus musculus, UniProt P30557); experiment: Binding affinity towards mouse Prostanoid EP3 receptor in CHO cells.; format: cell-based
T3 sequence (P30557 whole entry): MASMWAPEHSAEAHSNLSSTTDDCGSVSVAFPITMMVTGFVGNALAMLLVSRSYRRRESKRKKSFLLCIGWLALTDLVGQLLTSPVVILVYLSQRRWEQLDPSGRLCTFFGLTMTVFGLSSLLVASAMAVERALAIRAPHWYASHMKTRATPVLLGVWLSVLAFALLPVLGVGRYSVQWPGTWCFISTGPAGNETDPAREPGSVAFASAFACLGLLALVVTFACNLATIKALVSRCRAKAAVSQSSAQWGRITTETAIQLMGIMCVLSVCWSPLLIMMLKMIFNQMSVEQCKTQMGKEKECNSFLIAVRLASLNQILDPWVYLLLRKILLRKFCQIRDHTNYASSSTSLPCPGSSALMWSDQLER

[6] = target: T4, Prostaglandin E2 receptor EP1 subtype (Mus musculus, UniProt P35375); experiment: Binding affinity towards mouse Prostanoid EP1 receptor in CHO cells.; format: cell-based
T4 sequence (P35375 whole entry): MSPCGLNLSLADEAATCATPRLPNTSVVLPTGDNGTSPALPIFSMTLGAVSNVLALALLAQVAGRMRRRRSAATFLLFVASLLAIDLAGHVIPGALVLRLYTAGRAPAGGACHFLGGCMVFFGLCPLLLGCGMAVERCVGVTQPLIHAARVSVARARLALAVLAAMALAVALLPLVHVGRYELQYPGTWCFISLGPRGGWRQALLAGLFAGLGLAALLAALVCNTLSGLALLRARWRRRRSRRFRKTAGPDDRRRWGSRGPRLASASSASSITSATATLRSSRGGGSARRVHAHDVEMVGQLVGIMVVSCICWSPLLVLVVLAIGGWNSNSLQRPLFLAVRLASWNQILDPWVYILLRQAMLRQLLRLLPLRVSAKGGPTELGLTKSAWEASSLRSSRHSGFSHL

Prostacyclin receptor [7] = target: T2, Prostacyclin receptor; experiment: Effective concentration which increases intracellular c-AMP production in human Prostanoid IP receptor; format: functional, cell-based
Rattus norvegicus [8] = experiment: Suppression of uterine motility for the 5-min period before and after the commencenment of intravenous administration to anesthetized pregnant rats; format: functional
Rattus norvegicus [9] = experiment: Evaluated for its maximal response of hypotensive effect at 1000 ug/kg, iv; format: functional
[10] = target: Prostaglandin E2 receptor EP2 subtype (Homo sapiens, UniProt P43116); experiment: Compound was evaluated for its competitive binding affinity towards human Prostanoid EP2 receptor in CHO cells expressing prostanoid receptor; format: cell-based
Chain of Prostaglandin E2 receptor EP2 subtype (Homo sapiens, UniProt P43116) (P43116 whole entry): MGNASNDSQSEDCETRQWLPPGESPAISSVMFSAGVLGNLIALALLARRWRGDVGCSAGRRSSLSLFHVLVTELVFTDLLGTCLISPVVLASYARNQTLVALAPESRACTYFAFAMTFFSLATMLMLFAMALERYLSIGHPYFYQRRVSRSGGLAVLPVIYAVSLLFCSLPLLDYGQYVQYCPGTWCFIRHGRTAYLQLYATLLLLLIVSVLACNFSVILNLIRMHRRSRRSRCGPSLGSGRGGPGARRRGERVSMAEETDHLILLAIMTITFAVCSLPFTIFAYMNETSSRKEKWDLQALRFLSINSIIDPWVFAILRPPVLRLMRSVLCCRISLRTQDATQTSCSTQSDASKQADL

Rattus norvegicus [11] = experiment: Evaluated for its maximal response of hypotensive effect at 300 ug/kg, iv; format: functional
[12] = target: T1, Prostaglandin E2 receptor EP2 subtype; experiment: Effective concentration which increases intracellular c-AMP production in mouse EP2- receptor; format: functional, cell-based

T1 sequence (Q62053 whole entry): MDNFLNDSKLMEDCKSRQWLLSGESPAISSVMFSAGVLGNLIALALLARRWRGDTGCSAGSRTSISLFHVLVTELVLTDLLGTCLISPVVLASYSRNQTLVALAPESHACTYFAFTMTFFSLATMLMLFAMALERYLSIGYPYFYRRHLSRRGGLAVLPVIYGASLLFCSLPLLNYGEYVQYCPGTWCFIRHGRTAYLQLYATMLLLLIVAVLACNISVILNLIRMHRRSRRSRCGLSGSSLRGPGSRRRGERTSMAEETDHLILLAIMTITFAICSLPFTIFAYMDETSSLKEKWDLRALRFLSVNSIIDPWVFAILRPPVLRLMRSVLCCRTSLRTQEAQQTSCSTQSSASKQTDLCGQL

For `CCC1([C@@H](O)C/C=C/[C@@H]2[C@@H](C/C=C\CCCC(=O)O)[C@@H](Cl)C[C@H]2O)CCC1`, the EC50 [1] was 0.039 µM, the Ki [2] was > 10 µM and the Ki [3] was 0.013 µM. For the same compound, the Ki (Prostacyclin receptor [4]) was > 10 µM, the Ki [5] was > 10 µM and the Ki [6] was > 10 µM.

With `CCCC1([C@@H](O)C/C=C/C2[C@H](O)CC(=O)[C@@H]2CC#CCCCC(=O)O)CCC1` (some centres undefined) the Ki [2] was > 10 µM, the Ki [3] was 1.1 µM and the Ki [5] was > 10 µM. For the same compound, the Ki [6] was > 10 µM.

`CCCC1([C@@H](O)C/C=C/[C@H]2[C@H](O)CC(=O)[C@@H]2C/C=C\CCCC(=O)O)CCC1` was tested, and the EC50 [1] was 0.22 µM, the Ki [2] was > 10 µM and the Ki [3] was 0.33 µM. For the same compound, the Ki (Prostacyclin receptor [4]) was > 10 µM, the Ki [5] was 1.2 µM and the Ki [6] was > 10 µM.

With `CCCC1([C@@H](O)C/C=C/C2[C@H](O)CC(=O)[C@@H]2C/C=C/CCCC(=O)O)CCC1` (some centres undefined) the EC50 [1] was 0.043 µM, the Ki [2] was > 10 µM and the EC50 (Prostacyclin receptor [7]) was > 10 µM. The Ki [3] was 0.092 µM, the ED50 (Rattus norvegicus [8]) was 0.275 mg/kg and the Max response (Rattus norvegicus [9]) was 22.8 delta mmHg. For the same compound, the Ki [6] was > 10 µM.

`CCCCC1([C@@H](O)C/C=C/[C@H]2[C@H](O)CC(=O)[C@@H]2C/C=C\CCCC(=O)O)CCC1` was tested, and the EC50 [1] was 0.071 µM, the Ki [2] was > 10 µM and the Ki [3] was 0.043 µM. The Ki (Prostacyclin receptor [4]) was > 10 µM, the Ki [5] was 2 µM and the Ki [6] was 0.78 µM.

`CCCC1([C@@H](O)C/C=C/[C@H]2[C@H](O)CC(=O)[C@@H]2C/C=C\CCCC(=O)O)CCCC1` was tested, and the EC50 [1] was 0.58 µM, the Ki [2] was > 10 µM and the Ki [3] was 0.37 µM. For the same compound, the Ki (Prostacyclin receptor [4]) was > 10 µM and the Ki [6] was > 10 µM.

For `CCCC1([C@@H](O)C/C=C/[C@H]2[C@H](O)CC(=O)[C@@H]2C/C=C\CCCC(=O)O)CCCCC1`, the EC50 [1] was > 10 µM, the Ki [2] was > 10 µM and the Ki [3] was 3.3 µM. For the same compound, the Ki [6] was > 10 µM.

In the case of `CC(C)CC1([C@@H](O)C/C=C/[C@H]2[C@H](O)CC(=O)[C@@H]2C/C=C\CCCC(=O)O)CCC1`, the EC50 [1] is reported as 0.045 µM, the Ki [2] is reported as > 10 µM and the Ki [3] is reported as 0.04 µM. The Ki (Prostacyclin receptor [4]) was > 10 µM and the Ki [6] was > 10 µM.

Compound `CCCCC[C@@H](O)/C=C/[C@H]1[C@H](O)CC(=O)[C@@H]1C/C=C\CCCC(=O)O` has an EC50 [1] of 0.0021 µM, an EC50 (Prostacyclin receptor [7]) of 0.26 µM and a Ki [3] of 0.038 µM. The Ki (Prostacyclin receptor [4]) was > 10 µM, the Ki [5] was 0.005 µM and the ED50 (Rattus norvegicus [8]) was > 1.8 mg/kg. The Ki [6] was 0.018 µM.

In the case of `CCC1([C@@H](O)C/C=C/[C@@H]2[C@@H](C/C=C\CCCC(=O)O)CC[C@H]2O)CCC1`, the EC50 [1] is reported as 1.4 µM, the Ki [2] is reported as > 10 µM and the Ki [3] is reported as 0.011 µM. For the same compound, the Ki (Prostacyclin receptor [4]) was > 10 µM, the Ki [5] was > 10 µM and the Ki [6] was 5.1 µM.

In the case of `CCCC1([C@@H](O)C/C=C/C2[C@H](O)CC(=O)[C@@H]2CCc2ccc(C(=O)O)cc2)CCC1` (some centres undefined), the EC50 [1] is reported as 0.054 µM, the Ki [2] is reported as > 10 µM and the EC50 (Prostacyclin receptor [7]) is reported as > 10 µM. For the same compound, the Ki [3] was 0.025 µM and the Ki [6] was > 10 µM.

In the case of `CCC1([C@@H](O)C/C=C/[C@@H]2[C@@H](C/C=C\CCCC(=O)O)[C@H](Cl)C[C@H]2O)CCC1`, the Ki [10] is reported as 0.00074 µM, the EC50 [1] is reported as 0.0028 µM and the Ki [2] is reported as > 10 µM. The Ki [3] was 0.0022 µM, the Ki (Prostacyclin receptor [4]) was > 10 µM and the Ki [5] was > 10 µM. For the same compound, the ED50 (Rattus norvegicus [8]) was 0.0329 mg/kg, the Max response (Rattus norvegicus [11]) was 24.4 delta mmHg and the Ki [6] was 3.4 µM.

In the case of `CCCC1([C@@H](O)C/C=C/C2[C@H](O)CC(=O)[C@@H]2CCCCCCC(=O)OC)CCC1` (some centres undefined), the EC50 [12] is reported as 0.033 µM, the Ki [2] is reported as > 10 µM and the EC50 (Prostacyclin receptor [7]) is reported as 0.037 µM. For the same compound, the Ki [3] was 2.4 µM, the Ki (Prostacyclin receptor [4]) was > 10 µM and the Ki [5] was > 10 µM. The Ki [6] was > 10 µM.

`CCCCCC1([C@@H](O)C/C=C/[C@H]2[C@H](O)CC(=O)[C@@H]2C/C=C\CCCC(=O)O)CCC1` showed an EC50 [1] of 0.13 µM, a Ki [2] of 2.1 µM and a Ki [3] of 0.02 µM. For the same compound, the Ki (Prostacyclin receptor [4]) was > 10 µM, the Ki [5] was 0.83 µM and the Ki [6] was 1.6 µM.

`CCC1([C@@H](O)C/C=C/[C@H]2[C@H](O)CC(=O)[C@@H]2C/C=C\CCCC(=O)O)CCC1` was tested, and the EC50 [1] was 0.011 µM, the Ki [2] was > 10 µM and the Ki [3] was 0.03 µM. For the same compound, the Ki (Prostacyclin receptor [4]) was > 10 µM and the Ki [6] was > 10 µM.

Work on `CCCCCC(O)/C=C/[C@H]1[C@H](O)CC(=O)[C@@H]1CCCCCCC(=O)O` (single isomer, unassigned) [ALPROSTADIL] yielded an EC50 [1] of 0.0026 µM, a Ki [2] of 0.0033 µM and an EC50 (Prostacyclin receptor [7]) of 0.0018 µM. It also gave a Ki [3] of 0.087 µM, a Ki (Prostacyclin receptor [4]) of 0.15 µM and a Ki [5] of 0.005 µM. The Ki [6] was 0.1 µM.

With `CCCC1([C@@H](O)C/C=C/C2[C@H](O)CC(=O)[C@@H]2CCCCCCC(=O)O)CCC1` (some centres undefined) the EC50 [1] was 0.032 µM, the Ki [2] was > 10 µM and the EC50 (Prostacyclin receptor [7]) was 0.025 µM. For the same compound, the Ki [3] was 0.073 µM, the Ki (Prostacyclin receptor [4]) was 0.87 µM and the Ki [5] was > 10 µM. The ED50 (Rattus norvegicus [8]) was 0.455 mg/kg, the Max response (Rattus norvegicus [9]) was 39.8 delta mmHg and the Ki [6] was > 10 µM.
